Experimental data taken from patent publication US11020395B2, “Cycloalkyl substituted triazole compounds as agonists of the APJ receptor” (AMGEN INC., priority 2016, dated 2021).

Tests used:
[1] = tested on: heart failure rats; assay: Cardiac function with APJ small molecule agonists in the presence of ACE inhibitor captopril in heart failure rats in vivo; parameters: species or system rat; conditions: captopril alone, acute settings
Source text: The interaction between […] (ACE2) and Apelin biology is complicated. To investigate the interaction between the Apelin-APJ and ACE signalling pathways, we examined the improvement in cardiac function with APJ small molecule agonists in the presence of ACE inhibitor captopril in heart failure rats in vivo. […] However, in the presence of an APJ agonist, there was a shift in potency to the left with marked improvement in contractility and ejection fraction without changes in heart rate. These findings provide a new reference for the understanding of the regulation of ACE2 for the renin angiotensin aldosterone system (RAAS), independent of AT1R signaling and offer new potential drug targets for the treatment of diseases such as hypertension and heart failure. This work clearly establishes that combination of an agonist of the APJ receptor with an ARB such as losartan and/or with an ACE inhibitor such as captopril which may play an important role in providing greater efficacy in treating heart failure patients, for example in improving contractility and ejection fraction without changing the heart rate.

[2] = target: human APJ-AT1R double stable CHO cell line (Homo sapiens (Human), UniProt P35414); assay: IP1 accumulation (TR-FRET) assay with AngII in human APJ-AT1R double stable CHO cell line; type: cell-based; conditions: in the presence of AngII and APJ small molecule agonists
Method: The function of the inositol phosphate accumulation (IP1) was measured by Time-resolved fluorescence resonance energy (TR-FRET) at 620 nm and 665 nm respectively.
The plate was sealed and incubated for 1 hour.

[3] = target: human APJ receptor (Homo sapiens (Human), UniProt P35414); assay: [35S]GTPγS binding assay on membranes from CHO cells stably expressing human APJ receptor; type: biochemical; conditions: [35S]GTPγS SPA, read-out: Activity hAPJ SPA EC50 IP
Outline: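 Membranes from CHO cells stably expressing FLAG-tagged human APJ were incubated with [35S]GTPγS in buffer with optimized GDP, MgCl2 and NaCl, 90 min at RT. EC50 values derived by non-linear regression, averaged over several independent experiments.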

Chain of human APJ receptor (P35414 whole entry): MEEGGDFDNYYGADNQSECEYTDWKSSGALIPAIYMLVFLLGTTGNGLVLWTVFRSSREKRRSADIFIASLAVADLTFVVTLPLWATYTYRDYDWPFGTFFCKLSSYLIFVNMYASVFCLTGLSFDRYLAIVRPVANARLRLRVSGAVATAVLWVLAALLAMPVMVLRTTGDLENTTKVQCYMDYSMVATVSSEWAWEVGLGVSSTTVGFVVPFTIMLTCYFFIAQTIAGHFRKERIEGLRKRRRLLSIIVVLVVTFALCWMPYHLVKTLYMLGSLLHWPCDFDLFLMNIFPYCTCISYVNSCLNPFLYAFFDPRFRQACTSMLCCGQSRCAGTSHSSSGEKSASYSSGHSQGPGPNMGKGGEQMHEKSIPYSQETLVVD
Chain of human APJ-AT1R double stable CHO cell line (P35414 whole entry): as above

SMILES	EC50 [3] [nM]	also measured
C[C@H](CS)C(=O)N1CCC[C@H]1C(=O)O [Captopril, captopril]	–	contractility or ejection fraction [1]: does not show a marked improvement
CCCCc1nc(Cl)c(CO)n1Cc1ccc(-c2ccccc2-c2nn[nH]n2)cc1 [losartan]	–	effect on APJ agonist-induced positive cooperativity [2]: relieved this cooperativity
CO[C@H](c1ncc(Cl)cn1)[C@H](C)S(=O)(=O)Nc1nnc(C2CCC2)n1C1CCOCC1 [Example 97.0, (1R,2S)-1-(5-chloropyrimidin-2-yl)-N-(5-cyclobutyl-4-(tetrahydro-2H-pyran-4-yl)-4H-1,2,4-triazol-3-yl)-1-methoxypropane-2-sulfonamide]	370	–
COc1ncnc(OC)c1-n1c(NS(=O)(=O)[C@@H](C)[C@H](C)c2ncc(Cl)cn2)nnc1[C@@H]1CC[C@@H]1C(F)F (stereo in doubt) [Example 166.0]	20	–
COc1cccc(OC)c1-n1c(NS(=O)(=O)[C@@H](C)[C@@H](OC(C)C)c2ncc(C)cn2)nnc1[C@@H]1CCC(=O)C1 (single isomer, unassigned) [Example 229.0, (1S,2S)-N-(4-(2,6-dimethoxyphenyl)-5-((R)-3-oxocyclopentyl)-4H-1,2,4-triazol-3-yl)-1-isopropoxy-1-(5-methylpyrimidin-2-yl)propane-2-sulfonamide or (1S,2S)-N-(4-(2,6-dimethoxyphenyl)-5-((S)-3-oxocyclopentyl)-4H-1,2,4-triazol-3-yl)-1-isopropoxy-1-(5-methylpyrimidin-2-yl)propane-2-sulfonamide]	30	–
COc1ncnc(OC)c1-n1c(NS(=O)(=O)[C@@H](C)[C@H](OC)c2ncc(Cl)cn2)nnc1C1CC2(CCC2)C1 [Example 184.0, (1R,2S)-1-(5-chloro-2-pyrimidinyl)-N-(4-(4,6-dimethoxy-5-pyrimidinyl)-5-(spiro[3.3]heptan-2-yl)-4H-1,2,4-triazol-3-yl)-1-methoxy-2-propanesulfonamide]	1.1	–
